Common to all, as to assay: inhibition of tumour cell growth, NCI panel, 48 h
The test system of assay [1] is DLD-1.
The test system of assay [2] is DMS-114.
For assay [3], the system named is DMS-273.
Assay [4] has as its system HOP-18.
Assay [5] concerns KM-20L2.
Assay [6] concerns LXFL 529.
Assay [7] has as its system M19-MEL.
Assay [8] deals with RXF 631.
Assay [9] relates to XF498.

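How tested: cells in 96-well plates exposed to compound for 48 hours at five concentrations. At the GI50, growth is halved.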 The source made the active and inactive calls. Cut-off read from the data, not from the text of the source: active = GI50 up to about 1.1 µM and inactive = higher. Bounds are passed on as bounds.

As for `COc1cc2c(c(OC)c1OC)-c1ccc(SC)c(=O)cc1C(CO)C2` (stereo not drawn), the GI50 is 0.169 µM (active) in assay [1]; 0.0791 µM (active) in [2]; 0.0614 µM (active) in assay [3]; 24.8 µM (inactive) in assay [4]; 0.157 µM (active) in assay [5]; 0.136 µM (active) in assay [6]. In addition, the values for the GI50 in assay [7], in assay [8] and in [9] were 0.15 µM (active), < 0.01 µM (active) and 0.149 µM (active), respectively.

For the compound `C=CC/C=C/C/C=C/CCCCCCCc1cccc(O)c1C(=O)O`, the GI50 in [1] was 35 µM (inactive); in [2], > 100 µM (inactive); in assay [3] it was 45.4 µM (inactive); in assay [4], 17.3 µM (inactive); in [5] it was 86.1 µM (inactive); in assay [6], 36.1 µM (inactive). Further, the GI50 in [7] is 43.9 µM (inactive); in assay [8] it was > 100 µM (inactive); in [9], > 100 µM (inactive).

The values above are taken from ChEMBL document CHEMBL1201862, “PubChem BioAssay data set” (2004).
